Results: patent publication EP3981864A1, “DETERGENT COMPOSITION” (priority 2020, dated 2022)

Legend:
[1] = system: Solanum lycopersicum αDOX (SEQ ID NO: 8), fatty acid alpha-dioxygenase, Q5WM33, N-terminal His-tag variant SEQ ID NO: 263 (comparative); experiment: Alpha-dioxygenase activity assay (oxygen consumption, TON); format: biochemical; conditions: fatty acid 100 µM, enzyme 6 ppm, 50 mM HEPES pH 9.0, 37°C; initial rate of oxygen consumption / enzyme concentration
Text: (§1) Solanum lycopersicum αDOX (SEQ ID NO: 8) is a fatty acid alpha-dioxygenase that converts fatty acids into the corresponding 2-hydroperoxy fatty acids and is included as a comparative example of the present invention. A codon optimized gene (SEQ ID NO: 262) encoding for an alpha-dioxygenase variant (SEQ ID NO: 263), including an N-terminal amino acid sequence containing a His-tag was designed and synthesized by Genscript. After gene synthesis, the protein was expressed and purified. In brief, the complete synthetic gene sequence was subcloned into a pET30a vector using the NdeI/HindIII cloning sites. For heterologous expression, Escherichia coli BL21 (DE3) cells were transformed with the recombinant plasmid and a single colony was inoculated into LB medium containing kanamycin (50 mg/L). A pre-starter culture was then inoculated into flasks containing Magic Media (Thermo Fisher, Catalog # K6803) supplemented with kanamycin (50 mg/L) and incubated at 16 °C for 72 h. At an OD600nm = 0.5 - 1.0, 5-aminolevulinic acid (final concentration 0.5 mM) was added. Cells were harvested by centrifugation at 5000 rpm and 4°C and the pellet was lysed using a bacterial cell lysis buffer (B-PER - Themo Fisher, Waltham, MA). After centrifugation, the supernatant was collected, and the protein was purified by one-step purification using HisPur™ Ni-NTA Spin Columns (Thermo Scientific, Catalog # 88226) and standard protocols known in the art. The protein was concentrated using a 10 kDa MW cutoff Amicon Ultra centrifugal filter unit (Millipore Sigma, Catalog# UFC901024), followed by desalting using a disposable PD-10 desalting column (GE Healthcare Life Sciences, Catalog# 17085101) and a buffer containing 50 mM Tris-HCl, 500 mM NaCl, and 10% Glycerol at pH 8.0. […]
(§2) Reactions with alpha-dioxygenases were performed as follows. […] The reaction was incubated for up to 10 minutes at 37°C with 200 rpm agitation and the conversion was monitored using an oxygen sensor. The TON (in s-1) were calculated as the ratio between the initial rate of oxygen consumption (in µM/s) and the concentration of enzyme (in µM). […]

[2] = target: T1, Pisum sativum αDOX (SEQ ID NO: 4), fatty acid alpha-dioxygenase, Q5GQ66, N-terminal His-tag variant SEQ ID NO: 255 (Pisum sativum, UniProt Q5GQ66); experiment: as above; format: biochemical; conditions: fatty acid 100 µM, enzyme 6 ppm, 50 mM HEPES pH 9.0, 37°C; initial rate of oxygen consumption / enzyme concentration
T1 construct: made in house; host or cells: Escherichia coli BL21 (DE3), pET30a
T1 sequence (Q5GQ66 1-643): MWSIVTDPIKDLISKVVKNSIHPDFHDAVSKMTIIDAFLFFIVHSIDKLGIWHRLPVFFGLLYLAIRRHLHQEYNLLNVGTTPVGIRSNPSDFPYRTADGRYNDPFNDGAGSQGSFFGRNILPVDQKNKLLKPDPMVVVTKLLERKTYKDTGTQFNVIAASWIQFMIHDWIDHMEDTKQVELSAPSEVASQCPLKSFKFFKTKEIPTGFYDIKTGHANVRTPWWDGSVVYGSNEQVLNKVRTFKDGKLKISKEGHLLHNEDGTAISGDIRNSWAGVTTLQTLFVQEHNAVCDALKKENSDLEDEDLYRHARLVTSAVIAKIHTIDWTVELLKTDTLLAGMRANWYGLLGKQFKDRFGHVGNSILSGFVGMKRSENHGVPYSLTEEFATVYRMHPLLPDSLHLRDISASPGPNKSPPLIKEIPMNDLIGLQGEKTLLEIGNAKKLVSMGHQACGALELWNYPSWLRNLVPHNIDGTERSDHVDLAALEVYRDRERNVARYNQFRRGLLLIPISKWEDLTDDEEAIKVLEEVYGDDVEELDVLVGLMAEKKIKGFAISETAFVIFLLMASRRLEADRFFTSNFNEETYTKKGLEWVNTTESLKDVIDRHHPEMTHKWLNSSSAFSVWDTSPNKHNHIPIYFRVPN
Text: as §1, with “Pisum sativum” for “Solanum lycopersicum”, “4)” for “8)”, “an” for “a comparative”, “254)” for “262)”, “255),” for “263),”
as §2

In the case of `CCCCCCCC/C=C\CCCCCCCC(=O)O` [Oleic Acid], the “Oleic Acid, TON” value [1] is reported as 0.00 s⁻¹ and the “Oleic Acid, TON” value [2] is reported as 1.40 s⁻¹.

`CCCCCCCCCCCCCCCC(=O)O` [Palmitic Acid] was tested, and the “Palmitic Acid, TON” value [1] was 0.00 s⁻¹ and the “Palmitic Acid, TON” value [2] was 1.92 s⁻¹.

In the case of `CCCCCCCCCCCCCCCCCC(=O)O` [Stearic Acid], the “Stearic Acid, TON” value [1] is reported as 0.12 s⁻¹ and the “Stearic Acid, TON” value [2] is reported as 0.80 s⁻¹.
